From US10544156B2, “Hemi-synthetic trilobine analogs for use as a drug” (PIERRE FABRE MEDICAMENT, priority 2015, dated 2020)

How the values were obtained:
P73 promoter in HCT116 = test: C5 DNA methylation analysis of P73 promoter; type: cell-based, human; details: after 7 days, at 0.32 μM
Description: (§1) Cancer cell lines (colon HCT116 or leukaemia KG1) were treated with the compounds as indicated in the Data Tables and then analysed as following.
(§2) DNA was isolated from cultured cells using the DNeasy Blood and Tissue Kit according to the manufacturer's specifications (Qiagen). DNA bisulphite conversion was performed on 2 μg of DNA using the EZ DNA Methylation-Gold Kit according to the manufacturer's specifications (Zymo Research) and bisulfited DNA was eluted with 10 μL of water.
(§3) Two different techniques were used to analyse the DNA methylation profile after bisulfite conversion of genomic DNA: (A) cloning and sequencing or (B) COBRA. The primers for each promoter are specified in Table 4.
(§4) Sequencing of bisulfite-treated DNA allowing resolution of the methylation state of every cytosine in the target sequence, at single molecule resolution, is considered as the “gold standard” for DNA methylation analysis.
(§5) Bisulfite-specific primers with a minimum length of 18 bp were designed using Primer 3 program. […]
(§6) PCR amplicons were cloned with the StrataClone Ultra Blunt PCR Cloning Kit (Agilent Technologies), according to the manufacturers' instructions and up to 24 clones were picked for sequencing. […] Electrophoregram files and methylation signals at a given CpG site were quantified using the BISMA software as described above.

[1] = tested on: P15 promoter in leukaemia KG1 cells; test: C5 DNA methylation analysis of CDKN2B (P15) promoter; type: cell-based, human; details: after 3 days, at 0.32 μM
Description: as §1, §2, §3, §4, §5, §6

Row | Structure (SMILES) | Demethylation P73*/HCT116 (P73 promoter in HCT116) | Demethylation P15/KG1 [1]
1 | CCN(CC)CCCNC(=S)N1CCc2cc3c4cc2[C@@H]1Cc1ccc(OC)c(c1)Oc1ccc(cc1)C[C@H]1c2c(cc(OC)c(c2O4)O3)CCN1C(=S)NCCCN(CC)CC [Product 41] | *−24% after 7 days | –
2 | CNC(=O)N1CCc2cc(OC)c3c4c2[C@@H]1Cc1ccc(cc1)Oc1cc(ccc1OC)C[C@H]1c2cc(c(cc2CCN1C)O3)O4 [Product 44] | *−17% after 7 days | –
3 | COc1ccc2cc1Oc1ccc(cc1)C[C@@H]1NCCc3cc(OC)c4c(c31)Oc1cc3c(cc1O4)CCN(C)[C@H]3C2 [Trilobine (1), trilobine] | – | −25% after
